“And” between values parts separate entries of the source, which are not always exact repeats. Identical values can stand only once.
How the values were obtained:
Type in all cases: in vivo, human
intratumoral B cells = assay: Multiplexed immunofluorescence (anti-CD20) of paired pre-/post-dose tumor biopsies, phase 2 mesothelioma study: intratumoral compartment
Method: (§1) In this example, subjects were enrolled in a phase 2, multicenter, open-label, 2-part, single-arm, 2-stage study to assess PK, safety and efficacy of continuous oral dosing with tazemetostat 800 mg, twice daily in adult subjects with relapsed or refractory malignant mesothelioma. Subjects continued on study treatment until disease progression, development of an unacceptable toxicity, withdrawal of consent, or termination of the study. Assessments of clinical response were performed about every 6 weeks while on study. Subjects discontinued study treatment at the time of disease progression, development of an unacceptable toxicity, withdrawal of consent, or termination of the study.
(§2) Tumor tissue biopsy samples were collected for pre-dose tumor sampling at screening and post-dose at or following the first or second tumor assessments (Cycle 3 or 5) according to local clinical site procedures, and tissue blocks processed for formalin fixation and paraffin embedding (FFPE). These FFPE samples were stored at ambient temperature. Pairs of pre- and post-treatment samples were available from 12 subjects. FFPE tissue blocks were available for 9 cases (18 tissue samples) and slides from 3 subjects were available.
(§3) Preparation of tumor tissue was performed as follows: tumor tissue sections of 4-5 micron thickness containing representative tumor cells as determined by a trained pathologist were serially-cut from the same block for two patient cases. Sections were mounted on Superfrost plus slides (Fisherbrand™) and air-dried overnight. Where possible, sections from pre- and post-treatment from the same patient case were mounted on the same slide to reduce reagent use and to diminish technical variability of multiplex, serial antibody staining between pre- and post-treatment samples. Pre- and post-treatment samples passed QC evaluation for 10 biopsy pairs, and these samples were advanced to multiplexed immunofluorescence (IF) staining.
(§4) IF staining of a panel of pairs of Cy3 and Cy5-labeled antibodies was performed. Initially an autofluorescence removal process was conducted. Subsequently, 8 rounds of antibody staining were done with deactivation of the fluorescent dyes via alkaline oxidation occurring prior to each subsequent round of antibody staining.
(§5) As many regions of interest (ROI) were selected for spectral analysis for each sample, and the number ranged from 5-39 across the collection of samples. Few of the ROI failed QC for each sample, typically no more than 1-2 in each sample. There resulting number of ROI successfully imaged and analyzed ranged from 4-39. In toto, 340 of 355 ROI passed QC assessment (95.8%).
(§6) B cell content based on the number of individual cells stained with anti-CD20 in intratumoral and stromal compartments was determined and B cell density was calculated on a mm^2 basis. Creation of intratumoral/stromal masks using PanCK and EMA staining allowed separation of intratumoral from stromal signals. The mean of B cell density from each ROI that passed QC was calculated for each pre- and post-treatment biopsy sample.

stromal B cells = assay: Multiplexed immunofluorescence (anti-CD20) of paired pre-/post-dose tumor biopsies, phase 2 mesothelioma study: stromal compartment
Method: as §1, §2, §3, §4, §5, §6

[1] = tested on: tumor-infiltrating B cells; assay: Bulk RNA-sequencing of pre-/post-tazemetostat epithelioid sarcoma tumor samples; conditions: post- vs pre-tazemetostat
Method: as §1, with “open-label,” for “open-label, 2-part,”, “safety, tolerability” for “PK, safety”, “daily and 1600 mg once daily” for “daily”, “INI1-negative tumors” for “relapsed”, “relapsed/refractory synovial sarcoma. The patient cohorts in the study also included patients with epithelioid sarcoma.” for “refractory malignant mesothelioma.”, “8” for “6”
Tumor tissue biopsy samples from patients with epithelioid sarcoma were collected for pre-dose tumor sampling at screening and post-dose at or following the first or second tumor assessments (Cycle 3 or 5) according to local clinical site procedures, and tissue blocks processed for formalin fixation and paraffin embedding (FFPE), These FFPE samples were stored at ambient temperature. Pairs of pre- and post-treatment samples were available from 22 subjects.
Pre- and post-tazemetostat samples were analyzed using bulk RNA-sequencing to determine specific gene expression changes and also tumor-infiltrating B cell signatures. Several different B cell signatures and one Macrophage signature were analyzed including B cell memory_CIBERSORT, B cell memory_CIBERSORT-ABS, B cell memory_XCELL, B cell naïve_CIBERSORT, B cell naïve_CIBERSORT-ABS. B cell naïve_XCELL, B cell plasma_CIBERSORT, B cell plasma_CIBERSORT-ABS, B cell plasma_XCELL, B cell_EPIC, B cell_MCPCOUNTER, B cell_QUANTISEQ, B cell_TIMER, B cell_XCELL, Class-switched memory B cell_XCELL, and Macrophage_EPIC. […] Finally, two B cell-specific marker genes, CD19 and CD20, were also analyzed in pre- and post-tazemetostat administration samples.

tumor-associated B cells = assay: RNA-SEQ gene signature analysis of pre-/post-tazemetostat mesothelioma tumor samples; conditions: post- vs pre-tazemetostat
Method: as §1, §2
The pre- and post-tazemetostat samples were also analyzed using RNA-SEQ to determine if the decrease in intratumoral B cells and stromal B cells could be observed genetically.

[2] = 10 mesothelioma patients, post- vs pre-dose
[3] = mesothelioma, paired biopsies of 10 patients
[4] = one line per patient (Pt ID), post-dose biopsy (Cycle 3 or 5), tazemetostat 800 mg twice daily oral, relapsed or refractory malignant mesothelioma, CD20 staining, mean of ROI
[5] = one line per patient (Pt ID), post-dose vs pre-dose biopsy, 800 mg twice daily, mesothelioma, negative = increase

Question: Which “% decrease in intratumoral B cell density (mean of means)” value (intratumoral B cells; [2]) does the source give for `CCN(c1cc(-c2ccc(CN3CCOCC3)cc2)cc(C(=O)NCc2c(C)cc(C)[nH]c2=O)c1C)C1CCOCC1` [tazemetostat] here?
Answer: Its value is 77%.

Question: What about the “median % decrease in intratumoral B cell density” value (intratumoral B cells; [2]) of the same molecule?
Answer: The value was 100%.

Question: What about the “B cell post-tazemetostat intratumoral, mean of means” value (intratumoral B cells; mean over 10 patients, post-dose, pre-dose mean of means 35) of the same molecule?
Answer: The value was 8 cell/mm^2.

Question: What about the “cases in which number and density of intratumoral B cells decreased to zero” value (intratumoral B cells; mesothelioma, 10 patients) of the same molecule?
Answer: The value was 5 cases.

Question: What about the “patients with a decrease of intratumoral B cells” value (intratumoral B cells; [3]) of the same molecule?
Answer: The value was 8/10.

Question: And the “B cell post-tazemetostat intratumoral Mean (cell/mm^2)” value (intratumoral B cells; [4])?
Answer: The value was 0 cell/mm^2 (5×) and 3 cell/mm^2 and 43 cell/mm^2 and 11 cell/mm^2 and 22 cell/mm^2 and 2 cell/mm^2.

Question: What about the “% decrease B cell per sqmm in post-dose samples (intratumoral)” value (intratumoral B cells; [5]) of the same molecule?
Answer: Its value is 100% (5×) and 95% and −529% and 25% and 90%.

Question: What about the “increase in B cell content in one sample (intratumoral)” value (intratumoral B cells; one sample that biased the mean decrease) of the same molecule?
Answer: Its value is greater than 500%.

Question: What about the “% decrease in stromal B cell density (mean of means)” value (stromal B cells; [2]) of the same molecule?
Answer: The value was 90%.

Question: And the “median % decrease in stromal B cell density” value (stromal B cells; [2])?
Answer: Its value is 99%.

Question: What about the “B cell post-tazemetostat stromal, mean of means” value (stromal B cells; mean over 10 patients, post-dose, pre-dose mean of means 184) of the same molecule?
Answer: The value was 18 cell/mm^2.

Question: And the “cases in which number and density of stromal B cells decreased to zero” value (stromal B cells; mesothelioma, 10 patients)?
Answer: The value was 5 cases.

Question: And the “patients with a decrease of stromal B cells” value (stromal B cells; [3])?
Answer: Its value is 9/10.

Question: What about the “B cell post-tazemetostat stromal Mean (cell/mm^2)” value (stromal B cells; [4]) of the same molecule?
Answer: The value was 0 cell/mm^2 (5×) and 1 cell/mm^2 and 3 cell/mm^2 and 101 cell/mm^2 and 72 cell/mm^2 and 6 cell/mm^2.

Question: And the “% decrease B cell per mm^2 in post-dose samples (stromal)” value (stromal B cells; [5])?
Answer: Its value is 100% (4×) and 99% (3×) and 90% and −418% and 29%.

Question: And the “relative expression levels of several B cell signatures” value ([1]; FIG. 7A and 7B)?
Answer: The value was “showed decreases in relative expression levels”.

Question: What about the “level of CD19 (B cell-specific marker gene)” value ([1]; FIG. 8) of the same molecule?
Answer: The value was “decreased”.

Question: What about the “level of CD20 (B cell-specific marker gene)” value ([1]; FIG. 8) of the same molecule?
Answer: Its value is “decreased”.

Question: What about the “macrophage gene signature (Marcophage_EPIC)” value (tumor-associated B cells) of the same molecule?
Answer: The value was “showed no change”.

Question: And the “relative expression level of six B cell gene signatures (B cell memory_XCELL, B cell_MCPCOUNTER, B cell naïve_CIBERSORT, B cell_QUANTISEQ, B cell naïve_CIBERSORT-ABS, B cell_XCELL)” value (tumor-associated B cells; FIG. 6)?
Answer: Its value is “showed a decrease in relative expression level”.
